From the supplement of paper PMC10307832

How the values were obtained:
Assay in all cases: relative viability (nuclei count vs DMSO), 5 days (fraction); higher = more cells survive
[1] = compound: CC1=C(C=CC(=C1)[N+](=O)[O-])NS(=O)(=O)C2=C(C=CC(=C2)Cl)Cl [FH535] + CCNC(=O)c1noc(-c2cc(C(C)C)c(O)cc2O)c1-c1ccc(CN2CCOCC2)cc1 [Luminespib] (partner 0.01 µM)
Summary of the method: (§1)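 Relative viability is defined as nuclei in treated wells over nuclei in vehicle wells. Duplicate plates were run and medians reported. Lung cancer cell lines in 1536-well plates were dosed by pin tool one day after seeding, with one drug or with a fixed anchor-drug dose plus five library-drug doses (not always all listed) in √10 steps, and nuclei were counted after 5 days.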

[2] = compound: CC1=C(C=CC(=C1)[N+](=O)[O-])NS(=O)(=O)C2=C(C=CC(=C2)Cl)Cl [FH535] + COc1cc2c(Oc3ccc(NC(=O)C4(C(=O)Nc5ccc(F)cc5)CC4)cc3F)ccnc2cc1OCCCN1CCOCC1 [Foretinib] (partner 0.25 µM)
Summary of the method: as §1

[3] = compound: CC1=C(C=CC(=C1)[N+](=O)[O-])NS(=O)(=O)C2=C(C=CC(=C2)Cl)Cl [FH535] + COc1cccc2cc(-c3nc([C@H]4CC[C@H](C(=O)O)CC4)n4ncnc(N)c34)[nH]c12 [OSI-027] (partner 0.5 µM)
Summary of the method: as §1

[4] = compound: CC1=C(C=CC(=C1)[N+](=O)[O-])NS(=O)(=O)C2=C(C=CC(=C2)Cl)Cl [FH535] + Cc1nc(NC(=O)N2CCC[C@H]2C(N)=O)sc1-c1ccnc(C(C)(C)C(F)(F)F)c1 [Alpelisib] (partner 2 µM)
Summary of the method: as §1

[5] = compound: CC1=C(C=CC(=C1)[N+](=O)[O-])NS(=O)(=O)C2=C(C=CC(=C2)Cl)Cl [FH535] + Nc1ncn([C@H]2C[C@H](O)[C@@H](CO)O2)c(=O)n1 [Decitabine] (partner 2 µM)
Summary of the method: as §1

Cell Line	relative viability ([1]; first compound 0.04 µM)	relative viability ([1]; first compound 0.1265 µM)	relative viability ([1]; first compound 0.4 µM)	relative viability ([1]; first compound 1.265 µM)	relative viability ([2]; first compound 0.04 µM)	relative viability ([2]; first compound 0.1265 µM)	relative viability ([2]; first compound 0.4 µM)	relative viability ([2]; first compound 1.265 µM)	relative viability ([3]; first compound 0.04 µM)	relative viability ([3]; first compound 0.1265 µM)	relative viability ([3]; first compound 0.4 µM)	relative viability ([3]; first compound 1.265 µM)	relative viability ([4]; first compound 0.04 µM)	relative viability ([4]; first compound 0.1265 µM)	relative viability ([4]; first compound 0.4 µM)	relative viability ([4]; first compound 1.265 µM)	relative viability ([5]; first compound 0.04 µM)	relative viability ([5]; first compound 0.1265 µM)	relative viability ([5]; first compound 0.4 µM)	relative viability ([5]; first compound 1.265 µM)
SK-LU-1	0.181	0.21	0.198	0.214	0.834	0.805	0.822	0.662	0.359	0.347	0.324	0.235	0.913	1.1	0.949	0.616	0.63	0.517	0.626	0.44
NCI-H441	0.319	0.291	0.356	0.352	0.959	0.97	1.08	0.801	0.529	0.559	0.508	0.527	0.529	0.638	0.686	0.605	0.221	0.263	0.265	0.252
NCI-H1651	1.01	0.701	0.748	0.591	0.888	0.856	0.697	0.584	0.675	0.695	0.618	0.507	1	1.07	1.04	0.69	0.562	0.602	0.622	0.447
HARA	0.52	0.869	0.726	0.446	0.814	0.969	0.88	0.477	0.41	0.441	0.418	0.427	0.785	0.817	0.817	0.561	0.578	0.475	0.552	0.414
H3255	0.849	0.892	0.911	0.44	0.817	0.803	0.794	0.496	0.564	0.583	0.648	0.505	0.468	0.805	0.705	0.633	0.541	0.625	0.63	0.456
NCI-H460	0.0362	0.0377	0.0408	0.0254	1.05	1.05	0.937	0.654	0.612	0.754	0.542	0.375	0.388	0.601	0.51	0.449	0.442	0.608	0.493	0.347
ABC-1	0.543	0.861	0.627	0.337	1.04	0.849	0.969	0.907	0.446	0.418	0.452	0.414	1.18	1.25	0.954	1.29	1.07	0.997	0.994	1.01
NCI-H1437	1.1	1	0.858	0.449	1.27	1.21	0.924	0.425	0.862	0.851	0.647	0.434	0.982	0.968	0.897	0.468	0.526	0.554	0.488	0.344
HOP-62	0.695	0.98	0.831	0.707	1.06	1.04	1.03	0.933	0.77	0.779	0.678	0.713	0.931	0.948	0.778	0.694	0.232	0.196	0.23	0.227
EPLC-272H	0.277	0.357	0.505	0.197	0.586	0.852	0.72	0.562	0.27	0.296	0.279	0.238	0.951	0.978	1.02	0.963	0.328	0.4	0.412	0.377
COR-L 105	0.499	0.952	0.738	0.671	0.936	1.25	0.794	1.02	0.691	0.701	0.613	0.608	1.09	1.17	0.789	0.971	0.634	0.735	0.64	0.687
NCI-H2009	0.996	1.02	0.938	0.686	1.27	1.22	1.18	0.929	0.58	0.627	0.566	0.486	1.15	1.16	1.17	0.959	0.339	0.363	0.434	0.391
NCI-H2347	0.617	0.333	0.39	0.752	0.792	0.865	1.03	0.701	0.405	0.486	0.306	0.37	1.01	1.09	0.966	0.837	0.594	0.678	0.614	0.572
NCI-H838	0.278	0.419	0.261	0.247	1.03	1.11	0.933	0.823	0.388	0.423	0.388	0.328	0.917	1.06	0.962	0.765	0.39	0.498	0.387	0.345
NCI-H1355	0.667	0.761	0.72	0.463	1.03	1	0.904	0.582	0.366	0.466	0.349	0.303	0.786	0.87	0.818	0.401	0.334	0.325	0.368	0.36
